Consider 5 compounds from US9139613B2, “Macrocyclic compounds and methods for their production” (NEUROVIVE PHARMACEUTICAL AB, priority 2011, dated 2015).

Data set [1] in a line: Mouse in vivo oral and iv PK. The conditions noted are these: male, whole blood, CD1 mice. The method, then: For sanglifehrin analogues, whole blood is analysed. Compounds are formulated in 5% ethanol/5% cremophor EL/90% saline for both p.o. and i.v. administration. Groups of 3 male CD1 mice are dosed with either 1 mg/kg i.v. or 5 or 10 mg/kg p.o. Blood samples (40 μL) are taken via saphenous vein, pre-dose and at 0.25, 0.5, 2, 8, and 24 hours, and diluted with an equal amount of dH20 and put on dry ice immediately. Samples are stored at −70° C. until analysis. The concentration of the compound of the invention or parent compound in the sample is determined via LCMS as follows: 20 μL of blood:H2O (1:1, v/v)/PK sample is added with 20 μL Internal standard (hydroxyl macrocycle, 6) at 100 ng/mL, 20 μL working solution/MeOH and 150 μL of ACN, vortexed for 1 minute at 1500 rpm, and centrifuged at 12000 rpm for 5 min. The supernatant is then injected into LC-MS/MS. The time-course of blood concentrations is plotted and used to derive area under the whole blood concentration-time curve (AUC—which is directly proportional to the total amount of unchanged drug that reaches the systemic circulation). These values are used to generate PK parameters where possible.
To assess the pharmacokinetics of the compounds in an in vivo setting, compounds were dosed po at 10 or 5 mg/kg and iv at 1 mg/kg to groups of CD1 mice. Pharmacokinetic analysis was carried out as described in the general methods. […]

Data set [2] has as its system HCV genotype 1b replicon in Huh5.2 cells. The experiment in a line: HCV genotype 1b replicon assay using Huh5.2 cells (antiviral effect, luciferase). It is filed as cell-based, Hepatitis C virus. The following applies: for EC50: Hepatitis C virus, Huh-5-2, genotype 1b replicon, Huh5.2 cells, 72 hours; for Selectivity index (CC50/EC50): Huh5.2 replicon assay. The method, then:
(§1) Dilution series are prepared; each dilution series is performed in at least duplicate.
For the evaluation of antiviral effects, assay medium is aspirated and the cell monolayers are washed with PBS. The wash buffer is aspirated, 25 μL of Glo Lysis Buffer (Cat. N°. E2661, Promega) is added after which lysis is allowed to proceed for 5 min at room temperature. Subsequently, 50 μL of Luciferase Assay System (Cat. N^o. E1501, Promega) is added and the luciferase luminescence signal is quantified immediately (1000 ms integration time/well, Safire^2, Tecan). Relative luminescence units are converted to percentage of untreated controls.
(§2) The selectivity index (SI), indicative of the therapeutic window of the compound, is calculated as CC50/EC50.
For orientation: In antiviral work, replicon cells carry a viral genome segment that copies itself.

Data set [3] can be described thus: Anti-metabolic effect (MTS) in Huh5.2 replicon cells. The conditions noted are these: human. The method, then:
as §1, §2

In data set [4] the target is T1, CypA Peptidyl Prolyl cis-trans Isomerase (PPlase) (Homo sapiens, UniProt P62937).
T1 construct: GST (cleaved yes); made in house
The experiment in a line: Inhibition of CypA PPIase activity. Type of data set: biochemical.
Protocol: An alternative methodology for analysing interaction with cyclophilins is described as follows: The PPlase activity of recombinant CypA or D, produced by thrombin cleavage of GST-CypA or D, was determined by following the rate of hydrolysis of N-succinyl-Ala-Ala-Pro-Phe-p-nitroanilide by chymotrypsin. Chymotrypsin only hydrolyzes the trans form of the peptide, and hydrolysis of the cis form, the concentration of which is maximized by using a stock dissolved in trifluoroethanol containing 470 mM LiCl, is limited by the rate of cis-trans isomerization. CypA or D was equilibrated for 1 h at 5° C. with selected test article using a drug concentration range from 0.1 to 20 nM. The reaction was started by addition of the peptide, and the change in absorbance was monitored spectrophotometrically at 10 data points per second. The blank rates of hydrolysis (in the absence of CypA or D) were subtracted from the rates in the presence of CypA or D. The initial rates of the enzymatic reaction were analyzed by first-order regression analysis of the time course of the change in absorbance.

For data set [5] the following is noted: immunosuppressive activity; cited from earlier work.
Data set [6] relates to HIV. Kind of data set: HIV antiviral assay using HeLa cells. It is filed as cell-based, Human Immunodeficiency Virus.

Like-named read-outs stand apart in the source and are kept apart here.

T1 sequence (P62937 whole entry): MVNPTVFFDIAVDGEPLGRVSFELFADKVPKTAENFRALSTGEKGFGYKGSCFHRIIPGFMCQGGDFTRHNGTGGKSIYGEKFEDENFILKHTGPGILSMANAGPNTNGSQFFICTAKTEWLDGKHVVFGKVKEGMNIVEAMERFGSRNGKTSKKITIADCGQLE

Usually EC50 stands for the concentration that produces a half-maximal response. A high value points to weaker potency. One may read the CC50 as the concentration that lowers cell viability or growth by half. As a reminder, the IC50 is the midpoint of a concentration-inhibition curve. For the compound `CON(C)C(=O)/C=C/C=C(\C)[C@@H]1C/C=C/C=C/[C@H](O)[C@H](C)[C@@H](O)[C@@H](CCC(C)=O)C(=O)N[C@@H](C(C)C)C(=O)N[C@@H](Cc2cc(O)cc(F)c2)C(=O)N2CCCC(N2)C(=O)O1` (stereo partly shown) [Compound 23], the clearance in data set [1] (iv at 1 mg/kg) was 0.65 mL/min/kg. In data set [1] (po, dose level 5 mg/kg, read-out: po AUClast), the AUC(0-t) was determined as 2760 ng·h/mL. In data set [2], the EC50 was 67 nM and the “Selectivity index (CC50/EC50)” value was greater than 1493. In data set [3], this compound had a CC50 at 72 h greater than 100000 nM. Further, the IC50 in data set [4] (read-out: CypA PPIase IC50) was found to be 0.33 nM.
On to `CC(=O)CC[C@H]1C(=O)N[C@@H](C(C)C)C(=O)N[C@@H](Cc2cc(O)cc(F)c2)C(=O)N2CCCC(N2)C(=O)O[C@H](/C(C)=C/C=C/C(=O)Nc2ccccn2)C/C=C/C=C/[C@H](O)[C@H](C)[C@H]1O` (stereo partly shown) [Compound 25], for which, in data set [2], the EC50 came out at 66 nM and the “Selectivity index (CC50/EC50)” value is reported as greater than 1515. For the same compound, the CC50 at 72 h in data set [3] was greater than 100000 nM. Besides, the IC50 in data set [4] came out at 1.15 nM.
As to `CC(=O)CC[C@H]1C(=O)N[C@@H](C(C)C)C(=O)N[C@@H](Cc2ccc(C)c(O)c2)C(=O)N2CCCC(N2)C(=O)O[C@H](/C(C)=C/C=C/C(=O)N2CCCCO2)C/C=C/C=C/[C@H](O)[C@H](C)[C@H]1O` (stereo partly shown) [Compound 27], in data set [2], a half-maximal response (EC50) required 121 nM and the “Selectivity index (CC50/EC50)” value is on record as greater than 826. In addition, the CC50 at 72 h in data set [3] (Huh5.2 cells containing the HCV genotype 1b replicon) is greater than 100000 nM. Further, in data set [4] (read-out: CypA PPIase IC50), the IC50 was determined as 0.35 nM.
As for `CC[C@H]1C[C@H](C)[C@@]2(NC1=O)O[C@@H](C[C@H](O)[C@@H](C)CC/C=C/C=C(\C)[C@@H]1C/C=C/C=C/[C@H](O)[C@H](C)[C@@H](O)[C@@H](CCC(C)=O)C(=O)N[C@@H](C(C)C)C(=O)N[C@@H](Cc3cccc(O)c3)C(=O)N3CCC[C@H](N3)C(=O)O1)[C@H](C)[C@H](O)[C@@H]2C` [Sanglifehrin A, 5, Sanglifehrin A], the “less potent than Cyclosporine A” value in data set [5] is recorded as 10 fold.
As to `C[C@H](Cn1cnc2c(N)ncnc21)OCP(=O)(O)O` [Tenofovir], a half-maximal response in data set [6] (EC50) required 1050 nM.
